Assay results from patent US20240059698A1 (Accutar Biotechnology Inc., priority 2022, published 2024).
Like-named read-outs stand apart in the source and are kept apart here.

What was measured:
Type in all cases: cell-based
[1] = test system: A431 cells; test: Cell growth inhibition (CellTiter-Glo), A431; details: Homo sapiens, A-431, 72 h, 3 days
How it was run: (§1)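 HCC827 cells in RPMI and A431 cells in DMEM (both 10% FBS) were seeded at 5000 cells/well and left overnight. They were then exposed to compound dilutions for 3 days at 37° C. Viability was read by CellTiter-Glo luminescence.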

[2] = test system: HCC827-YVMA cells (human ERBB2 exon20 insertion mutant A775_G776ins YVMA); test: Cell growth inhibition (CellTiter-Glo), HCC827-YVMA; details: 72 h, read-out: Cell growth inhibition, GI50 (nM) HCC827-YVMA
How it was run: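 HCC827 cells transduced with lentiviral codon-optimized mutant (ERBB2 A775_G776insYVMA or EGFR V769_D770insASV), endogenous EGFR knocked out by CRISPR, single clone selected. Cells seeded overnight in RPMI/10% FBS, then exposed to serially diluted compounds at 37 °C for 3 days; viability read by CellTiter-Glo luminescence.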

[3] = test system: HCC827 cells; test: Cell growth inhibition (CellTiter-Glo), HCC827; details: Homo sapiens, 72 h, 3 days
How it was run: as §1

[4] = test system: HCC827-ASV cells (human EGFR exon 20 insertion mutant V769_D770insASV); test: Cell growth inhibition (CellTiter-Glo), HCC827-ASV; details: 72 h, read-out: Cell growth inhibition, GI50 (nM) HCC827-ASV
Description: Generation of HCC827-SVD, HCC827-ASV, and HCC827-YVMA cell lines. The HCC827-SVD cell line was generated by first transducing HCC827 cells (ATCC) with lentiviral particles expressing codon-optimized human EGFR exon 20 insertion mutant D770_N771insSVD, and then selecting under 5 µg/mL puromycin treatment for a week. The resulting cells were further transduced with lentiviral particles carrying EGFR sgRNA and CAS9 to knockout the endogenous alleles of EGER and then selected under 500 µg/mL hygromycin B treatment for two weeks. The limiting dilution approach was used to subsequently generate the single clone of the HCC827-SVD stable cell line. Endogenous EGFR knockout was confirmed by Sanger sequencing of cell genomic DNA, and expression of exogenous mutant EGFR was verified by Western blot analysis.
HCC827-ASV and HCC827-YVMA cell lines were generated in a similar approach as HCC827-SVD, except that HCC827 cells (ATCC) were first transduced with lentiviral particles expressing codon-optimized human EGFR exon 20 insertion mutant V769_D770insASV and human ERBB2 exon20 insertion mutant A775_G776ins YVMA, respectively.
2. Cell Growth Inhibition for HCC827, HCC827-SVD, HCC827-ASV, HCC827-YVMA, and A431.
HCC827(ATCC), HCC827-SVD, HCC827-ASV, and HCC827-YVMA cells were seeded in 96-well plates at 5000 cells/well in 90 μL of RPMI growth medium containing 10% FBS and 1% Penicillin Streptomycin. A431 (ATCC) cells were seeded in 96-well plates at 5000 cells/well in 90 μL of DMEM growth medium containing 10% FBS and 1% Penicillin Streptomycin. Cells were incubated at 37° C. overnight and then administered with 10 μL 10× test compounds prepared in the growth medium at various concentrations. After administration of the compounds, cells were incubated at 37° C. for 3 days. Before the CellTiter-Glo assay, the plates were equilibrated at room temperature for approximately 30 minutes. 100 ul of CellTiter-Glo reagent (Promega) was added to each well. The plates were then incubated at room temperature for 10 minutes and luminescence was recorded by the EnSight® multimode plate reader (PerkinElmer). Table 7 listed selected compounds in cellular growth assay.

[5] = test system: HCC827-SVD cells (human EGFR exon 20 insertion mutant D770_N771insSVD); test: Cell growth inhibition (CellTiter-Glo), HCC827-SVD; details: 72 h, 3 days
How it was run: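 HCC827 cells with endogenous EGFR knocked out and lentivirally expressing the insertion mutant (single clone) were seeded at 5000 cells/well in RPMI with 10% FBS. After overnight, compounds added; 3 days at 37 °C, then CellTiter-Glo luminescence.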

[6] = HCC827-YVMA cells, 3 days, CellTiter-Glo
[7] = HCC827-ASV cells, 3 days, CellTiter-Glo

Row | SMILES | GI50 [1] [nM] | GI50 [2, 6] [nM] | GI50 [3] [nM] | GI50 [4, 7] [nM] | GI50 [5] [nM] | GI50 [2] [nM] | GI50 [4] [nM]
1 | C=CC(=O)N1CCC(c2c[nH]c3ncnc(Nc4ccc(Oc5ccnc(NC(=O)C6CCCC6)c5)cc4F)c23)CC1 [Compound 90, N-(4-(4-((5-(1-acryloylpiperidin-4-yl)-7H-pyrrolo[2,3-d]pyrimidin-4-yl)amino)-3-fluorophenoxy)pyridin-2-yl)cyclopentanecarboxamide] | 200 to 1000 | < 50 | 50 to 200 | < 50 | 50 to 200 | – | –
2 | C=CC(=O)N1CCC(c2c[nH]c3ncnc(Nc4ccc(Oc5ccnc(Nc6ccccn6)c5)cc4F)c23)CC1 [Compound 135, 1-(4-(4-((2-fluoro-4-((2-(pyridin-2-ylamino)pyridin-4-yl)oxy)phenyl)amino)-7H-pyrrolo[2,3-d]pyrimidin-5-yl)piperidin-1-yl)prop-2-en-1-one] | 200 to 1000 | < 50 | > 1000 | < 50 | < 50 | – | –
3 | C=CC(=O)N1CCC(c2c[nH]c3ncnc(Nc4ccc(Oc5ccnc(-n6ccc(OC)n6)c5)cc4F)c23)CC1 [Compound 136, 1-(4-(4-((2-fluoro-4-((2-(3-methoxy-1H-pyrazol-1-yl)pyridin-4-yl)oxy)phenyl)amino)-7H-pyrrolo[2,3-d]pyrimidin-5-yl)piperidin-1-yl)prop-2-en-1-one] | > 1000 | < 50 | 200 to 1000 | < 50 | 50 to 200 | – | –
4 | C=CC(=O)N1CCC(c2c[nH]c3ncnc(Nc4ccc(Oc5ccnc(N6CC(O)(C(F)(F)F)C6)c5)cc4F)c23)CC1 [Compound 144, 1-(4-(4-((2-fluoro-4-((2-(3-hydroxy-3-(trifluoromethyl)azetidin-1-yl)pyridin-4-yl)oxy)phenyl)amino)-7H-pyrrolo[2,3-d]pyrimidin-5-yl)piperidin-1-yl)prop-2-en-1-one] | > 1000 | < 50 | 50 to 200 | < 50 | > 1000 | – | –
5 | C=CC(=O)N1CCC(c2c[nH]c3ncnc(Nc4ccc(Oc5ccnc(N6CCN(C)CC6)c5)cc4F)c23)CC1 [Compound 152, 1-(4-(4-((2-fluoro-4-((2-(4-methylpiperazin-1-yl)pyridin-4-yl)oxy)phenyl)amino)-7H-pyrrolo[2,3-d]pyrimidin-5-yl)piperidin-1-yl)prop-2-en-1-one] | > 1000 | 200 to 1000 | > 1000 | 200 to 1000 | 200 to 1000 | – | –
6 | C=CC(=O)N1CC=C(c2c[nH]c3ncnc(Nc4ccc(OCc5ccccn5)c(Cl)c4)c23)CC1 [Compound 154, 1-(4-(4-((3-chloro-4-(pyridin-2-ylmethoxy)phenyl)amino)-7H-pyrrolo[2,3-d]pyrimidin-5-yl)-3,6-dihydropyridin-1(2H)-yl)prop-2-en-1-one] | 200 to 1000 | < 50 | < 50 | < 50 | < 50 | – | –
7 | C=CC(=O)N1CCC(c2c[nH]c3ncnc(Nc4ccc(Oc5ccnc(N6C[C@@H](C)O[C@@H](C)C6)c5)cc4F)c23)CC1 [Compound 155, 1-(4-(4-((4-((2-((2S,6R)-2,6-dimethylmorpholino)pyridin-4-yl)oxy)-2-fluorophenyl)amino)-7H-pyrrolo[2,3-d]pyrimidin-5-yl)piperidin-1-yl)prop-2-en-1-one] | > 1000 | 50 to 200 | > 1000 | 200 to 1000 | 50 to 200 | – | –
8 | C=CC(=O)N1CCC(c2c[nH]c3ncnc(Nc4ccc(OCc5ccccn5)c(Cl)c4)c23)CC1 [Compound 156, 1-(4-(4-((3-chloro-4-(pyridin-2-ylmethoxy)phenyl)amino)-7H-pyrrolo[2,3-d]pyrimidin-5-yl)piperidin-1-yl)prop-2-en-1-one] | < 50 | < 50 | < 50 | < 50 | < 50 | – | –
9 | C=CC(=O)N1CCC(c2c[nH]c3ncnc(Nc4ccc(Oc5ccn(Cc6cc(C)ccn6)n5)cc4F)c23)CC1 [Compound 157, 1-(4-(4-((2-fluoro-4-((1-((4-methylpyridin-2-yl)methyl)-1H-pyrazol-3-yl)oxy)phenyl)amino)-7H-pyrrolo[2,3-d]pyrimidin-5-yl)piperidin-1-yl)prop-2-en-1-one] | > 1000 | 50 to 200 | 200 to 1000 | 50 to 200 | 50 to 200 | – | –
10 | C=CC(=O)N1CCC(c2c[nH]c3ncnc(Nc4ccc(OCc5cc6sccc6cn5)c(Cl)c4)c23)CC1 [Compound 224, 1-(4-(4-((3-chloro-4-(thieno[3,2-c]pyridin-6-ylmethoxy)phenyl)amino)-7H-pyrrolo[2,3-d]pyrimidin-5-yl)piperidin-1-yl)prop-2-en-1-one] | – | – | – | – | < 50 | < 50 | < 50
11 | C=CC(=O)N1CCC(c2c[nH]c3ncnc(Nc4ccc5c(cnn5Cc5cccc(F)c5)c4)c23)CC1 [Compound 226, 1-(4-(4-((1-(3-fluorobenzyl)-1H-indazol-5-yl)amino)-7H-pyrrolo[2,3-d]pyrimidin-5-yl)piperidin-1-yl)prop-2-en-1-one] | – | < 50 | – | < 50 | < 50 | – | –
12 | [2H]C([2H])(Oc1ccc(Nc2ncnc3[nH]cc(C4CCN(C(=O)C=C)CC4)c23)cc1Cl)c1ccccn1 [Compound 227, 1-(4-(4-((3-chloro-4-(pyridin-2-ylmethoxy-d2)phenyl)amino)-7H-pyrrolo[2,3-d]pyrimidin-5-yl)piperidin-1-yl)prop-2-en-1-one] | – | < 50 | – | < 50 | < 50 | – | –
13 | C=CC(=O)N1CCC(c2c[nH]c3ncnc(Nc4ccc(OCc5cccc(F)c5)c(Cl)c4)c23)CC1 [Compound 228, 1-(4-(4-((3-chloro-4-((3-fluorobenzyl)oxy)phenyl)amino)-7H-pyrrolo[2,3-d]pyrimidin-5-yl)piperidin-1-yl)prop-2-en-1-one] | – | < 50 | – | < 50 | < 50 | – | –
14 | C=CC(=O)N1CCC(c2c[nH]c3ncnc(Nc4ccc(OCc5ccsn5)c(Cl)c4)c23)CC1 [Compound 229, 1-(4-(4-((3-chloro-4-(isothiazol-3-ylmethoxy)phenyl)amino)-7H-pyrrolo[2,3-d]pyrimidin-5-yl)piperidin-1-yl)prop-2-en-1-one] | – | < 50 | – | < 50 | < 50 | – | –
15 | C=CC(=O)N1[C@@H]2CC[C@H]1CC(c1c[nH]c3ncnc(Nc4ccc(OCc5ccccn5)c(Cl)c4)c13)C2 (stereo partly shown) [Compound 230] | – | < 50 | – | < 50 | < 50 | – | –
16 | C=CC(=O)N1CCC(c2c[nH]c3ncnc(Nc4ccc(Oc5ccnc(NC(=O)C6CCC6)c5)cc4F)c23)CC1 [Compound 231, N-(4-(4-((5-(1-acryloylpiperidin-4-yl)-7H-pyrrolo[2,3-d]pyrimidin-4-yl)amino)-3-fluorophenoxy)pyridin-2-yl)cyclobutanecarboxamide] | – | 50 to 200 | – | 50 to 200 | 50 to 200 | – | –
17 | C=CC(=O)N1CCC(c2c[nH]c3ncnc(Nc4ccc(Oc5ccnc(NC(=O)C6CC6)c5)cc4F)c23)CC1 [Compound 232, N-(4-(4-((5-(1-acryloylpiperidin-4-yl)-7H-pyrrolo[2,3-d]pyrimidin-4-yl)amino)-3-fluorophenoxy)pyridin-2-yl)cyclopropanecarboxamide] | > 1000 | < 50 | – | < 50 | < 50 | – | –
